Experimental findings from PubChem BioAssay (NCI) are described below.

Among the test systems are LOX IMVI melanoma; A549 NSCLC; M14 melanoma; SK-OV-3 ovarian; OVCAR-3 ovarian; HCT-116 colon; SN12C renal; UACC-62 melanoma; SF-295 CNS; RPMI-8226 leukemia.
What all share (experiment): growth of human tumour cells (NCI), 48 h

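All cell lines were grown in 96-well plates and treated with compound for 48 hours. The concentration for 50% growth inhibition is given as GI50. TGI: concentration producing complete growth inhibition.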

Regarding `COc1cc2c(c(Br)c1N)-c1cc(Br)c(N)cc1C2=O`, the GI50 with LOX IMVI melanoma was more than 100 µM; in the test on A549 NSCLC, more than 89.9 µM; in the test on M14 melanoma it was 50.9 µM; in the test with SK-OV-3 ovarian, 11.3 µM; in the test on OVCAR-3 ovarian it was more than 100 µM; in the test with HCT-116 colon, 3.49 µM. In addition, the GI50 in the test with SN12C renal is 6.33 µM; in the test with UACC-62 melanoma, more than 100 µM; in the test on SF-295 CNS, more than 100 µM; in the test with RPMI-8226 leukemia, more than 100 µM. The TGI is more than 100 µM in the test with LOX IMVI melanoma; more than 100 µM with A549 NSCLC; more than 100 µM in the test with M14 melanoma; more than 73.5 µM in the test with SK-OV-3 ovarian; more than 100 µM with OVCAR-3 ovarian; more than 100 µM in the test on HCT-116 colon. The TGI in the test on SN12C renal, in the test with UACC-62 melanoma, in the test with SF-295 CNS and in the test with RPMI-8226 leukemia was more than 100 µM in each case.
As to `COc1ccc(Br)c(CCCCC(=O)O)c1`, the TGI with LOX IMVI melanoma, in the test with A549 NSCLC, with M14 melanoma, in the test on SK-OV-3 ovarian, in the test with OVCAR-3 ovarian and in the test on HCT-116 colon was more than 100 µM in each case. Further, the TGI in the test with SN12C renal, in the test with UACC-62 melanoma, in the test with SF-295 CNS and in the test with RPMI-8226 leukemia was more than 100 µM throughout.
On to `Cc1ccc2c(c1)/C(=N\N=C/c1cn(C(C)C)c3ccccc13)C(=O)N2`, for which the GI50 in the test on LOX IMVI melanoma was 2.55 µM; with A549 NSCLC, 5.66 µM; with M14 melanoma, 3.95 µM; with SK-OV-3 ovarian, more than 100 µM; in the test on OVCAR-3 ovarian, 0.311 µM; with HCT-116 colon, 1.09 µM. The GI50 is 4.47 µM in the test with SN12C renal, 2.69 µM in the test on UACC-62 melanoma, more than 100 µM with SF-295 CNS and 0.396 µM in the test with RPMI-8226 leukemia. The TGI in the test with LOX IMVI melanoma is 25.2 µM; in the test on A549 NSCLC, more than 100 µM; with M14 melanoma, more than 100 µM; in the test on SK-OV-3 ovarian, more than 100 µM; in the test on OVCAR-3 ovarian, 31.9 µM; with HCT-116 colon, more than 100 µM. In addition, the TGI is more than 100 µM with SN12C renal, more than 100 µM in the test on UACC-62 melanoma, more than 100 µM with SF-295 CNS and 7.31 µM with RPMI-8226 leukemia.
In the case of `CC1(C)CCC(CN2CCN(c3ccc(C(=O)NS(=O)(=O)c4ccc(NCC5CCOCC5)c([N+](=O)[O-])c4)c(Oc4cnc5[nH]ccc5c4)c3)CC2)=C(c2ccc(Cl)cc2)C1`, the GI50 was 2.21 µM with LOX IMVI melanoma; 2.4 µM in the test on A549 NSCLC; 2.54 µM in the test with M14 melanoma; 3.16 µM in the test on SK-OV-3 ovarian; 2.31 µM in the test with OVCAR-3 ovarian; 3.36 µM in the test with HCT-116 colon. Besides, the GI50 is 2.82 µM with SN12C renal, 0.782 µM in the test on UACC-62 melanoma, 2.35 µM in the test on SF-295 CNS and 1.78 µM in the test with RPMI-8226 leukemia. Also, the TGI was 4.85 µM in the test with LOX IMVI melanoma; 11.8 µM in the test on A549 NSCLC; 7.07 µM with M14 melanoma; 10.9 µM in the test on SK-OV-3 ovarian; 5.44 µM in the test on OVCAR-3 ovarian; 11.8 µM with HCT-116 colon. Moreover, the TGI came to 11.8 µM with SN12C renal, 2.16 µM in the test on UACC-62 melanoma, 7.42 µM in the test on SF-295 CNS and 5.54 µM in the test with RPMI-8226 leukemia.
Regarding `CC1(C)CC[C@]2(C(=O)O)CCC3(C)C(=CCC4[C@@]5(C)CC[C@H](OC6OCC(O)C(O)C6OC6OC(CO)C(O)C(O)C6O)C(C)(C)C5CC[C@]43C)C2C1` (stereo not given in full), the TGI in the test on LOX IMVI melanoma came to 4.18 µM; in the test on A549 NSCLC it was 3.53 µM; in the test with M14 melanoma, 3.45 µM; in the test with SK-OV-3 ovarian it was 4.25 µM; with OVCAR-3 ovarian it was 4.39 µM; with HCT-116 colon, 7.06 µM. For the same compound, the TGI in the test with SN12C renal worked out at 3.42 µM; with UACC-62 melanoma, 3.42 µM; in the test with SF-295 CNS, 3.42 µM; in the test on RPMI-8226 leukemia, 6.71 µM.
Turning to `O=C(NCCS(=O)(=O)N1C(=O)C2CCCN2C(=O)[C@@H]1Cc1ccccc1)OCc1ccccc1` (stereo not given in full), the TGI in the test with LOX IMVI melanoma is more than 100 µM; with A549 NSCLC, more than 100 µM; in the test with M14 melanoma, more than 100 µM; in the test with SK-OV-3 ovarian it was more than 100 µM; in the test on OVCAR-3 ovarian, 70.2 µM; with HCT-116 colon it was more than 100 µM. Also, the TGI was more than 100 µM with SN12C renal, more than 100 µM in the test on UACC-62 melanoma, more than 100 µM in the test on SF-295 CNS and 64.4 µM with RPMI-8226 leukemia.
As to `COC(=O)[C@@]12C3=NO[C@]1(C(=O)OC)C(O[Si](C)(C)C(C)(C)C)C1OC(C)(C)OC1[C@@H]2[C@@H](OCc1ccccc1)CC3` (stereo not given in full), the TGI in the test on LOX IMVI melanoma, with A549 NSCLC, in the test with M14 melanoma, with SK-OV-3 ovarian, in the test with OVCAR-3 ovarian and in the test on HCT-116 colon was more than 100 µM in each case. Further, the TGI in the test with SN12C renal, in the test with UACC-62 melanoma, with SF-295 CNS and in the test with RPMI-8226 leukemia was more than 100 µM throughout.
On to `Cc1cc(C)c2c(c1C)CN1CN2Cc2c(C)c(C)cc(C)c21`, for which the TGI in the test with LOX IMVI melanoma, with A549 NSCLC, in the test on M14 melanoma, in the test with SK-OV-3 ovarian, with OVCAR-3 ovarian and in the test with HCT-116 colon was more than 100 µM in each case. The TGI in the test with SN12C renal, with UACC-62 melanoma, in the test on SF-295 CNS and in the test with RPMI-8226 leukemia was more than 100 µM throughout.
With `O=C1/C(=C\c2ccccc2)CN(C(=O)c2ccccc2F)C/C1=C\c1ccccc1`, the GI50 with LOX IMVI melanoma was 0.746 µM; in the test with A549 NSCLC, 3.2 µM; in the test on M14 melanoma, 2.51 µM; in the test on SK-OV-3 ovarian it was 2.4 µM; in the test with OVCAR-3 ovarian, 2.36 µM; in the test with HCT-116 colon, 0.321 µM. The GI50 in the test on SN12C renal is 1.77 µM; in the test with UACC-62 melanoma, 1.68 µM; in the test with SF-295 CNS, 2.24 µM; with RPMI-8226 leukemia it was 0.125 µM. Moreover, the TGI in the test on LOX IMVI melanoma was found to be 2.17 µM; with A549 NSCLC, 12 µM; in the test on M14 melanoma, 7.12 µM; in the test on SK-OV-3 ovarian, 5.34 µM; with OVCAR-3 ovarian it was 5.35 µM; in the test on HCT-116 colon it was 1.03 µM. Moreover, the TGI turned out to be 3.48 µM in the test with SN12C renal, 3.41 µM in the test on UACC-62 melanoma, 5.77 µM in the test with SF-295 CNS and 0.72 µM with RPMI-8226 leukemia.
